Our source for the Activity and inhibition values is ChEMBL document CHEMBL5131473, “One-pot synthesis of oxoaporphines as potent antitumor agents and investigation of their mechanisms of actions” (Eur J Med Chem, 2022).

The test system of data set [1] is T-24. Description: Induction of apoptosis in human T24 cells assessed as late apoptotic cells at 15 uM incubated for 24 hrs by Annexin-V/PI staining based flow cytometry analysis (reference value: 0.543 %). Type of data set: functional. (Flow cytometry measures light scatter and fluorescence of single cells or particles in a stream.)
In data set [2] the test system is T-24. Description: Induction of ROS generation in human T24 cells at 10 uM by fluorescence microscopy. Type of data set: functional, cell-based.
Data set [3] deals with T-24. Description: Induction of cell cycle arrest in human T24 cells assessed as increase in CDK1 expression at 10 to 15 uM incubated for 24 hrs by chemiluminescence based Western blotting analysis. Type of data set: functional. The note with it: dose 10-15 µM, DDE = dose-dependent effect.
The subject of data set [4] is T-24. Description: Induction of apoptosis in human T24 cells assessed as early apoptotic cells at 10 uM incubated for 24 hrs by Annexin-V/PI staining based flow cytometry analysis (reference value: 3.27 %). Type of data set: functional.
Data set [5] relates to T-24. Description: Induction of apoptosis in human T24 cells assessed as late apoptotic cells at 10 uM incubated for 24 hrs by Annexin-V/PI staining based flow cytometry analysis (reference value: 0.543 %). The class given is functional.
Data set [6] concerns T-24. Description: Induction of mitochondrial mediated apoptosis in human T24 cells assessed as decrease in Bcl-2 protein expression at 10 to 15 uM incubated for 24 hrs by Western blotting analysis. The settings on record: dose 10-15 µM. Type of data set: functional, cell-based. A general note: In western blotting, separated proteins are transferred to a membrane and probed.

The subject of data set [7] is T-24. Description: Induction of mitochondrial ROS generation in human T24 cells at 10 uM measured after 24 hrs by Mitotracker Red dye based confocal microscopy method. Type of data set: functional, cell-based.
Data set [8] concerns T-24. Description: Induction of apoptosis in human T24 cells assessed as necrotic cells at 20 uM incubated for 24 hrs by Annexin-V/PI staining based flow cytometry analysis (reference value: 1.92 %). The class given is functional.
In data set [9] the test system is T-24. Description: Induction of apoptosis in human T24 cells assessed as contracted small fragmented nuclei at 10 uM by Hoechst33258 staining based fluorescence microscopy. Type of data set: functional, cell-based.
The subject of data set [10] is T-24. Description: Cytotoxicity against human T24 cells assessed as decrease in cell viability at 10 uM by MTT assay. Type of data set: functional, cell-based. The note with it: TDE = time-dependent effect. In general terms: Tetrazolium assays rely on reduction of a dye to a coloured formazan, in cell work by metabolically active cells.
The test system of data set [11] is T-24. Description: Induction of mitochondrial membrane potential dysfunction in human T24 cells assessed as nuclear condensation at 10 to 15 uM by mito-tracker green dye based fluorescence microscopy. The class given is functional, cell-based. The settings on record: dose 10-15 µM.
Data set [12] relates to T-24. Description: Induction of mitochondrial membrane potential dysfunction in human T24 cells assessed as disappearance of cristae at 10 uM incubated for 24 hrs by TEM analysis. The class given is functional, cell-based.
The test system of data set [13] is T-24. Description: Induction of apoptosis in human T24 cells assessed as late apoptotic cells at 20 uM incubated for 24 hrs by Annexin-V/PI staining based flow cytometry analysis (reference value: 0.543 %). Type of data set: functional.
For data set [14], the system named is T-24. Description: Induction of cell cycle arrest in human T24 cells assessed as accumulation of cells at G2/M phase at 15 uM incubated for 24 hrs by propidium iodide/RNase A staining based flow cytometry analysis (reference value: 5.82 %). The class given is functional.
Data set [15] has as its system T-24. Description: Induction of apoptosis in human T24 cells assessed as increase in caspase 9 activity at 15 uM (Rvb= 7.2%). Type of data set: functional.
Data set [16] has as its system T-24. Description: Induction of mitochondrial membrane potential dysfunction in human T24 cells assessed as decrease in ATP production at 4 uM. The class given is functional. Set-up: scale not given: the % may be the effect or the level left.
Data set [17] has as its system T-24. Description: Induction of DNA damage in human T24 cells assessed as increase in gamma H2AX expression at 2 to 4 uM incubated for 24 hrs by Western blot analysis. Type of data set: functional, cell-based. The settings on record: dose 2-4 µM.
For data set [18], the system named is T-24. Description: Induction of apoptosis in human T24 cells assessed as increase in caspase 3 activity at 4 uM (Rvb= 3.1%). Type of data set: functional.
The subject of data set [19] is T-24. Description: Induction of apoptosis in human T24 cells assessed as condensed chromatin at 2 uM by Hoechst33258 staining based fluorescence microscopy. The class given is functional, cell-based.
Data set [20] relates to T-24. Description: Induction of apoptosis in human T24 cells assessed as contracted small fragmented nuclei at 2 uM by Hoechst33258 staining based fluorescence microscopy. Type of data set: functional, cell-based.
The subject of data set [21] is T-24. Description: Inhibition of colony formation in human T24 cells at 0.08 uM incubated for 24 hrs and measured for 10 days. The class given is functional, cell-based.
The subject of data set [22] is T-24. Description: Induction of mitochondrial membrane potential dysfunction in human T24 cells assessed as depolarised cells at 2 uM incubated for 24 hrs by JC-1 staining based flow cytometry (reference value: 6.20%). The class given is functional.
The test system of data set [23] is T-24. Description: Cytotoxicity against human T24 cells assessed as decrease in cell viability at 2 uM by MTT assay. The note with it: t-24, 72 h, TDE = time-dependent effect. The class given is toxicity, cell-based.
For data set [24], the system named is T-24. Description: Induction of apoptosis in human T24 cells assessed as early apoptotic cells at 1 uM incubated for 24 hrs by Annexin-V/PI staining based flow cytometry analysis (reference value: 3.27 %). Type of data set: functional.
In data set [25] the test system is T-24. Description: Inhibition of colony formation in human T24 cells at 0.01 uM incubated for 24 hrs and measured for 10 days. The class given is functional, cell-based.
Data set [26] deals with T-24. Description: Induction of ROS generation in human T24 cells at 0.5 uM by fluorescence microscopy. The class given is functional, cell-based.
Data set [27] concerns T-24. Description: Induction of mitochondrial ROS generation in human T24 cells at 0.5 uM measured after 24 hrs by Mitotracker Red dye based confocal microscopy method. The class given is functional, cell-based.
The test system of data set [28] is T-24. Description: Induction of DNA damage in human T24 cells assessed as increase in […] p53 expression at 0.5 to 1 uM incubated for 24 hrs by Western blot analysis. The class given is functional, cell-based. The settings on record: dose 0.5-1 µM.
For data set [29], the system named is T-24. Description: Induction of mitochondrial mediated apoptosis in human T24 cells assessed as upregulation of cytochrome c expression at 0.5 to 1 uM incubated for 24 hrs by Western blotting analysis. Type of data set: functional, cell-based. The note with it: dose 0.5-1 µM.

Activity calls are given as the source filed them. No cut-off for these calls is given here.

As for `O=C1c2ccccc2-c2cccc3ccnc1c23`, the Activity in the data set on T-24 [1] was 6.56%; in the data set on T-24 [3] it was “Dde”; with T-24 [4], 14.4%; in the data set with T-24 [5], 3.25%; with T-24 [8], 2.31%; in the data set with T-24 [10], “Tde”. Besides, the figures for the Activity in the data set with T-24 [13], with T-24 [14] and in the data set with T-24 [15] were 4.89%, 22.69% and 26.3%, respectively. Besides, the outcome in the data set on T-24 [2], in the data set with T-24 [6], in the data set on T-24 [7], with T-24 [9], in the data set on T-24 [11] and in the data set on T-24 [12] was Active.
Regarding `O=C1c2cc([N+](=O)[O-])ccc2-c2ccc([N+](=O)[O-])c3ccnc1c23`, the Activity in the data set with T-24 [16] is 43.1%; in the data set on T-24 [18] it was 28%; in the data set with T-24 [22], 15.9%; in the data set on T-24 [23], “Tde”. The result with T-24 [17], with T-24 [19] and in the data set on T-24 [20] was Active. Besides, in the data set on T-24 [21], the inhibition result was “Active”.
Take `O=C1c2ccccc2-c2ccc([N+](=O)[O-])c3ccnc1c23`: the Activity with T-24 [24] is on record as 39.5%. Also, the inhibition entry in the data set on T-24 [25] was “Active”. For the same compound, the result in the data set on T-24 [26], in the data set on T-24 [27], in the data set on T-24 [28] and in the data set with T-24 [29] was Active.
